Bridge positions count the residues as written; N and C are the ends. Square brackets hold non-standard residues; d marks the D form. Peptide text beside a SMILES is read from it. 2Nal = N[C@@H](Cc1ccc2ccccc2c1)C(=O)O; Cit = NC(=O)NCCC[C@H](N)C(=O)O; Dab = NCC[C@H](N)C(=O)O
Assays:
[1] = test system: human red blood cells (hRBC); experiment: Hemolysis; format: cell-based
Method in brief: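 Percent lysis taken as OD540 of peptide-treated sample over OD540 of the water/0.1% Triton X-100 full-lysis control, with PBS giving 0%. Peptides at 100 μM exposed to PBS-washed human RBCs (20% v/v) for 1 hour at 37° C. before centrifugation and 20-fold dilution of supernatant.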

[2] = in vitro; format: in vitro ADME; settings: plasma
Description: 405 μl of plasma/albumin solution were placed in a polypropylene (PP) tube and spiked with 45 μl of compound from a 100 μM solution B, derived from 135 μl of PBS and 15 μl of 1 mM peptide in PBS, pH 7.4. 150 μl aliquots were transferred into individual wells of the 10 kDa filter plate (Millipore MAPPB 1010 Biomax membrane). For “0 minutes controls”: 270 μl of PBS were placed in a PP tube and 30 μl of stock solution B was added and vortexed. 150 μl of control solution was placed into one well of the filter plate and serves as “filtered control”.
Further 150 μl of control solution were placed directly into a receiver well (reserved for filtrate) and serve as “not-filtered control”. The entire plate including evaporation lid was incubated for 60 min at 37° C. Plasma samples (rat plasma: Harlan Sera lab UK, human plasma: Blutspendezentrum Zürich) were centrifuged at least for 2 h at 4300 rpm (3500 g) and 15° C. in order to yield 100 μl filtrate. For “serum albumin”-samples (freshly prepared human albumin: Sigma A-4327, rat albumin: Sigma A-6272, all at 40 mg/ml concentration in PBS) approximately 1 hour of centrifugation is sufficient. The filtrates in the receiver PP plate were analysed by LC/MS as followes: Column: Jupiter C18 (Phenomenex), mobile phases: (A) 0.1% formic acid in water and (B) acetonitrile, gradient: 5%-100% (B) in 2 minutes, electrospray ionization, MRM detection (triple quadrupole). The peak areas were determined and triplicate values are averaged. The binding is expressed in percent of the (filtered and not-filtered time point 0 min) control 1 and 2 by: 100−(100*T60/T0). The average from these values is then calculated (see ref. 9 below).

[3] = in vitro; settings: human
Description: Each peptide concentration was assayed in triplicate. […] Wells were then washed once with PBS and subsequently 100 μl MTT reagent (0.5 mg/mL in medium RPMI1640 and, respectively, DMEM) was added to the wells. This was incubated at 37° C. for 2 hours and subsequently the medium was aspirated and 100 μl isopropanol was added to each well. […] For each concentration averages were calculated from triplicates. The percentage of growth was calculated as follows: (OD595peptide-OD595Tz-OD595Empty well)/(OD595Tz-OD595Empty well)×100% and was plotted for each peptide concentration.
‘CCR5’ cells were cultured in DMEM medium with 4500 mg/ml glucose, 10% fetal bovine serum (FBS), supplemented with 50 U/ml Penicillin and 50 μg/ml Streptomycin (Pen/Strept.). Hut/4-3 cells were maintained in RPMI medium, 10% FBS, supplemented with Pen/Strept. and 10 mM HEPES. HELA cells and CCRF-CEM cells were maintained in RPMI1640 plus 5% FBS, Pen/Strept and 2 mM L-Glutamine. Cos-7 cells were grown in DMEM medium with 4500 mg/ml glucose supplemented with 10% FCS, Pen/Strept. and 2 mM L-Glutamine. All cell lines were grown at 37° C. at 5% CO2.

[4] = molecular target: CXCR4 (Homo sapiens, UniProt P61073); experiment: Ca2+-assay method 2 (Flexstation, SDF-1 induced calcium mobilization); format: cell-based; set-up: expressed in transfected cells; host or cells: mouse pre-B cell line 300-19; settings: method 2 (Ex. 54-160), mouse pre-B cell line 300-19 with human CXCR4, 10 nM SDF-1; read-out: IC50 (nM) Ca^2+ assay
CXCR4, sequence (P61073 whole entry): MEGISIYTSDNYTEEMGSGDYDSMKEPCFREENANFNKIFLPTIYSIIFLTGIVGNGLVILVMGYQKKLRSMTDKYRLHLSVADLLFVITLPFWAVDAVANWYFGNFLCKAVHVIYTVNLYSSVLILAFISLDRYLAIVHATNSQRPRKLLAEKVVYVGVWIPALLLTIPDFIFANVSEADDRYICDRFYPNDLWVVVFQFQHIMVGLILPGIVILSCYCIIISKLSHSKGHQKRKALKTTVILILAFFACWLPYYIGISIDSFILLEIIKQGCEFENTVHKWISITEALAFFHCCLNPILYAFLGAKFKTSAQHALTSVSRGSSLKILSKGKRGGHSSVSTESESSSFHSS
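For GI50 in this document: MTT reduction read as absorbance at 595 nm, blank-corrected and expressed as percent growth relative to the time-zero cell reading, triplicate wells per concentration.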

Compound	Hemolysis at 100 μM [1] [%]	half-life at 10 μM ([2]; human) [min]	half-life at 10 μM ([2]; rat) [min]	GI50 at 48 h [3] [µM]	IC50 [4] [nM]
N=C(N)NCCC[C@@H]1NC(=O)[C@@H]2CCNC(=O)CC[C@H](NC(=O)[C@H](Cc3c[nH]c4ccccc34)NC(=O)[C@H](CCCNC(=N)N)NC(=O)[C@H](CCCNC(=N)N)NC(=O)[C@H]3CCCN3C(=O)CNC1=O)C(=O)N[C@@H](Cc1ccc(O)cc1)C(=O)N[C@@H](CCCNC(N)=O)C(=O)N[C@@H](CCCCN)C(=O)N1CCC[C@@H]1C(=O)N1CCC[C@H]1C(=O)N[C@@H](Cc1ccc(O)cc1)C(=O)N[C@@H](CCCNC(=N)N)C(=O)N[C@@H](CCCNC(N)=O)C(=O)N2 [Ex. 152] (cyclo(YR[Cit][Dab]RG[dP]RRWEY[Cit]K[dP]P); lactam 4-11)	0	23	86	46	4.2
N=C(N)NCCC[C@@H]1NC(=O)[C@@H]2CSSC[C@H](NC(=O)[C@H](Cc3ccc4ccccc4c3)NC(=O)[C@H](CCCNC(=N)N)NC(=O)[C@H](CCCNC(=N)N)NC(=O)[C@H]3CCCN3C(=O)CNC1=O)C(=O)N[C@@H](Cc1ccc(O)cc1)C(=O)N[C@@H](CCC(N)=O)C(=O)N[C@@H](CCCCN)C(=O)N1CCC[C@@H]1C(=O)N1CCC[C@H]1C(=O)N[C@@H](Cc1ccc(O)cc1)C(=O)N[C@@H](CCCNC(=N)N)C(=O)N[C@@H](CCC(=O)O)C(=O)N2 [Ex. 75] (cyclo(YRECRG[dP]RR[2Nal]CYQK[dP]P); disulfide 4-11)	0	188	142	> 100	3.5
N=C(N)NCCC[C@@H]1NC(=O)[C@@H]2CSSC[C@H](NC(=O)[C@H](Cc3ccc4ccccc4c3)NC(=O)[C@H](CCCNC(=N)N)NC(=O)[C@H](CCCNC(=N)N)NC(=O)[C@H]3CCCN3C(=O)CNC1=O)C(=O)N[C@@H](Cc1ccc(O)cc1)C(=O)N[C@@H](CCC(N)=O)C(=O)N[C@@H](CC(=O)O)C(=O)N1CCC[C@@H]1C(=O)N1CCC[C@H]1C(=O)N[C@@H](Cc1ccc(O)cc1)C(=O)N[C@@H](CCCNC(=N)N)C(=O)N[C@@H](CCCNC(N)=O)C(=O)N2 [Ex. 85] (cyclo(YR[Cit]CRG[dP]RR[2Nal]CYQD[dP]P); disulfide 4-11)	0	166	> 300	94	2.7
N=C(N)NCCC[C@@H]1NC(=O)[C@@H]2CSSC[C@H](NC(=O)[C@H](Cc3ccc4ccccc4c3)NC(=O)[C@H](CCCNC(=N)N)NC(=O)[C@H](CCCNC(=N)N)NC(=O)[C@H]3CCCN3C(=O)CNC1=O)C(=O)N[C@@H](Cc1ccc(O)cc1)C(=O)N[C@@H](CCC(N)=O)C(=O)N[C@@H](CCC(N)=O)C(=O)N1CCC[C@@H]1C(=O)N1CCC[C@H]1C(=O)N[C@@H](Cc1ccc(O)cc1)C(=O)N[C@@H](CCCNC(=N)N)C(=O)N[C@@H](CCCNC(N)=O)C(=O)N2 [Ex. 60] (cyclo(YR[Cit]CRG[dP]RR[2Nal]CYQQ[dP]P); disulfide 4-11)	0.1	> 300	> 300	62	0.18
N=C(N)NCCC[C@@H]1NC(=O)[C@@H]2CSSC[C@H](NC(=O)[C@H](Cc3ccc4ccccc4c3)NC(=O)[C@H](CCCNC(=N)N)NC(=O)[C@H](CCCNC(=N)N)NC(=O)[C@H]3CCCN3C(=O)CNC1=O)C(=O)N[C@@H](Cc1ccc(O)cc1)C(=O)N[C@@H](CCC(N)=O)C(=O)N[C@@H](CCCCN)C(=O)N1CCC[C@@H]1C(=O)N1CCC[C@H]1C(=O)N[C@@H](CCC(=O)O)C(=O)N[C@@H](CCCNC(=N)N)C(=O)N[C@@H](CCCNC(N)=O)C(=O)N2 [Ex. 68] (cyclo(ER[Cit]CRG[dP]RR[2Nal]CYQK[dP]P); disulfide 4-11)	0.1	127	81	> 100	1.1
N=C(N)NCCC[C@@H]1NC(=O)[C@@H]2CSSC[C@H](NC(=O)[C@H](Cc3ccc4ccccc4c3)NC(=O)[C@H](CCCNC(=N)N)NC(=O)[C@H](CCCNC(=N)N)NC(=O)[C@H]3CCCN3C(=O)CNC1=O)C(=O)N[C@@H](Cc1ccc(O)cc1)C(=O)N[C@@H](CCC(N)=O)C(=O)N[C@@H](CCC(=O)O)C(=O)N1CCC[C@@H]1C(=O)N1CCC[C@H]1C(=O)N[C@@H](Cc1ccc(O)cc1)C(=O)N[C@@H](CCCNC(=N)N)C(=O)N[C@@H](CCCNC(N)=O)C(=O)N2 [Ex. 61] (cyclo(YR[Cit]CRG[dP]RR[2Nal]CYQE[dP]P); disulfide 4-11)	0.3	273	> 300	> 100	4.1
C[C@@H](O)[C@@H]1NC(=O)[C@H](CCCNC(=N)N)NC(=O)[C@H](Cc2ccc(O)cc2)NC(=O)[C@@H]2CCCN2C(=O)[C@H]2CCCN2C(=O)[C@H](CCCCN)NC(=O)[C@H](CCC(N)=O)NC(=O)[C@H](Cc2ccc(O)cc2)NC(=O)[C@@H]2CSSC[C@H](NC1=O)C(=O)N[C@@H](CCCNC(=N)N)C(=O)NCC(=O)N1CCC[C@@H]1C(=O)N[C@@H](CCN)C(=O)N[C@@H](CCCNC(=N)N)C(=O)N[C@@H](Cc1c[nH]c3ccccc13)C(=O)N2 [Ex. 110] (cyclo(YRTCRG[dP][Dab]RWCYQK[dP]P); disulfide 4-11)	0	115	259	48	1.7
N=C(N)NCCC[C@@H]1NC(=O)[C@H](CO)NC(=O)[C@H](CCCNC(N)=O)NC(=O)[C@H](CCCNC(=N)N)NC(=O)[C@H](Cc2ccc(O)cc2)NC(=O)[C@@H]2CCCN2C(=O)[C@H]2CCCN2C(=O)[C@H](CCCCN)NC(=O)[C@H](CCCNC(N)=O)NC(=O)[C@H](Cc2ccc(O)cc2)NC(=O)[C@H](CC(N)=O)NC(=O)[C@H](Cc2c[nH]c3ccccc23)NC(=O)[C@H](CCCNC(=N)N)NC(=O)[C@H](CCCNC(=N)N)NC(=O)[C@H]2CCCN2C(=O)CNC1=O [Ex. 151] (cyclo(YR[Cit]SRG[dP]RRWNY[Cit]K[dP]P))	0.9	89	71	83	4.2
N=C(N)NCCC[C@@H]1NC(=O)[C@H](CCCNC(=N)N)NC(=O)[C@H]2CCCN2C(=O)CNC(=O)[C@H](CO)NC(=O)[C@@H]2CSSC[C@H](NC(=O)[C@H](Cc3ccc4ccccc4c3)NC1=O)C(=O)N[C@@H](Cc1ccc(O)cc1)C(=O)N[C@@H](CCC(N)=O)C(=O)N[C@@H](CCCCN)C(=O)N1CCC[C@@H]1C(=O)N1CCC[C@H]1C(=O)N[C@@H](Cc1ccc(O)cc1)C(=O)N[C@@H](CCCNC(=N)N)C(=O)N[C@@H](CCCNC(N)=O)C(=O)N2 [Ex. 101] (cyclo(YR[Cit]CSG[dP]RR[2Nal]CYQK[dP]P); disulfide 4-11)	0.6	> 300	247	74	1.28
C[C@@H](O)[C@@H]1NC(=O)[C@H](Cc2c[nH]cn2)NC(=O)[C@H](Cc2ccc(O)cc2)NC(=O)[C@@H]2CCCN2C(=O)[C@H]2CCCN2C(=O)[C@H](CCCCN)NC(=O)[C@H](CCC(N)=O)NC(=O)[C@H](Cc2ccc(O)cc2)NC(=O)[C@@H]2CSSC[C@H](NC1=O)C(=O)N[C@@H](CCCNC(=N)N)C(=O)NCC(=O)N1CCC[C@@H]1C(=O)N[C@@H](CCCNC(=N)N)C(=O)N[C@@H](CCCNC(=N)N)C(=O)N[C@@H](Cc1c[nH]c3ccccc13)C(=O)N2 [Ex. 120] (cyclo(YHTCRG[dP]RRWCYQK[dP]P); disulfide 4-11)	0	39	174	78	
N=C(N)NCCC[C@@H]1NC(=O)[C@@H]2CSSC[C@H](NC(=O)[C@H](Cc3c[nH]c4ccccc34)NC(=O)[C@H](CCCNC(=N)N)NC(=O)[C@H](CCCNC(=N)N)NC(=O)[C@H]3CCCN3C(=O)CNC1=O)C(=O)N[C@@H](Cc1ccc(O)cc1)C(=O)N[C@@H](CCCNC(N)=O)C(=O)N[C@@H](CC(=O)O)C(=O)N1CCC[C@@H]1C(=O)N1CCC[C@H]1C(=O)N[C@@H](Cc1ccc(O)cc1)C(=O)N[C@@H](CCCNC(=N)N)C(=O)N[C@@H](CO)C(=O)N2 [Ex. 102] (cyclo(YRSCRG[dP]RRWCY[Cit]D[dP]P); disulfide 4-11)	0.5	255	245	33	8

— patent US8895695B2, “Template-fixed beta-hairpin peptidomimetics with CXCR4 antagonizing activity” (priority 2003, dated 2014)
